Test results as given in US9695155B2, “Herbicidal substituted pyrimidinyloxy benzene compounds” (E. I. DU PONT DE NEMOURS AND COMPANY, priority 2013, dated 2017).

What was measured:
wheat, winter = experiment: Test C preemergence; format: in vivo, Triticum aestivum
Method in brief: (§1)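 Greenhouse herbicide screen. Pre: seeded loam/sand, sprayed at planting. Post: 1–4 leaf plants (2–18 cm) in peat-based mix. Formulation: solvent mixture + surfactant, non-phytotoxic. Readout: visual % control vs untreated, 13–15 d; dash = not tested.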

giant foxtail = experiment: Test A postemergence; format: in vivo, Setaria faberii
Method in brief: (§2)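 Pre- and postemergence greenhouse screen. Soil: loam + sand. Spray carrier: solvent mixture, non-phytotoxic, with surfactant. Post timing at 1–2 leaves, height 2–10 cm. Readout: visual injury on a 0–100 scale roughly 10 days after application, untreated plants as reference.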

blackgrass = experiment: Test A postemergence; format: in vivo, Alopecurus myosuroides; conditions: for Plant response rating, Blackgrass: 0 to 100 scale, 0 no effect, 100 complete control
Method in brief: as §2

Italian ryegrass = experiment: Test C postemergence; format: in vivo, Lolium multiflorum
Method in brief: as §1

pigweed = experiment: Test A preemergence; format: in vivo, Amaranthus retroflexus
Method in brief: as §2

johnsongrass = experiment: Test C preemergence; format: in vivo, Sorghum halepense
Method in brief: as §1

Heteranthera limosa = experiment: Test B flooded paddy test; format: in vivo; conditions: Flood, 250 g ai/ha, 0 to 100 scale where 0 is no effect and 100 is complete control
Method in brief: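 Visual ratings on a 0 to 100 scale, where 100 means complete control, compared treated plants with controls after 13 to 15 days in a greenhouse. Treatment went into paddy water 3 cm deep over the soil, applied to plants at the 2-leaf stage.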

wheat = experiment: Test A postemergence; format: in vivo, Triticum aestivum
Method in brief: as §2

kochia [1] = experiment: Test A preemergence; format: in vivo, Kochia scoparia; conditions: for Plant response rating, Kochia: 0 to 100 scale where 0 is no effect and 100 is complete control
Method in brief: as §2

corn = experiment: Test C postemergence; format: in vivo, Zea mays
Method in brief: as §1

kochia [2] = experiment: Test A postemergence; format: in vivo, Kochia scoparia; conditions: for Plant response rating, Kochia: 0 to 100 scale, 0 no effect, 100 complete control
Method in brief: as §2

galium = experiment: Test C preemergence; format: in vivo, Galium aparine
Method in brief: as §1

waterhemp = experiment: Test C preemergence; format: in vivo, Amaranthus rudis
Method in brief: as §1

[3] = 125 g ai/ha, 0 to 100 scale where 0 is no effect and 100 is complete control
[4] = 31 g ai/ha, visual, approximately 10 days
[5] = 16 g ai/ha, preemergence, scale 0 to 100 (0 no effect, 100 complete control)
[6] = 125 g ai/ha, preemergence, scale 0 (no effect) to 100 (complete control)
[7] = Preemergence, 62 g ai/ha, scale 0 to 100, 0 no effect, 100 complete control
[8] = 31 g ai/ha, 0 to 100 scale, 0 no effect, 100 complete control
[9] = 125 g ai/ha, 0 to 100 scale, 0 no effect, 100 complete control
[10] = 16 g ai/ha, postemergence, 0 is no effect, 100 is complete control
[11] = 31 g ai/ha, postemergence, visual rating, scale 0 to 100 (0 no effect, 100 complete control), 13 to 15 days
[12] = 125 g ai/ha, postemergence, visual rating, scale 0 to 100 (0 no effect, 100 complete control)
[13] = Postemergence, 62 g ai/ha, scale 0 to 100 (0 no effect, 100 complete control), 13 to 15 days

Fc1cccc(Oc2ncc(Cl)cn2)c1-n1cc(C(F)F)nn1 [Compound 141, 5-chloro-2-[2-[4-(difluoromethyl)-1H-1,2,3-triazol-1-yl]-3-fluorophenoxy]pyrimidine]
plant injury at 16 g/ha (wheat, winter; Triticum aestivum, pre-emergence, 16 g ai/ha, preemergence, scale 0 to 100 (0 no effect, 100 complete control), read-out: Wheat plant response rating): 0% | plant injury at 62 g/ha (wheat, winter; Triticum aestivum, pre-emergence, 62 g ai/ha, preemergence, scale 0 (no effect) to 100 (complete control), read-out: Wheat plant response rating): 40% | plant injury at 125 g/ha (wheat, winter; Triticum aestivum, pre-emergence, 125 g ai/ha, preemergence, scale 0 (no effect) to 100 (complete control), read-out: Wheat plant response rating): 60% | pest or weed control at 31 g/ha (giant foxtail; Setaria faberi, post-emergence, 240 h, 31 g ai/ha, 0 to 100 scale, 0 no effect, 100 complete control, read-out: Plant response rating, Foxtail, Giant): 90% | pest or weed control at 125 g/ha (giant foxtail; Setaria faberi, post-emergence, 240 h, 125 g ai/ha, 0 to 100 scale where 0 is no effect and 100 is complete control, read-out: Foxtail, Giant plant response rating): 100% | Plant response rating, Blackgrass (blackgrass; 31 g ai/ha): 90 | Blackgrass plant response rating (blackgrass; [3]): 100 | pest or weed control at 16 g/ha (Italian ryegrass; Lolium multiflorum, post-emergence, 16 g ai/ha, postemergence, 0 is no effect, 100 is complete control, read-out: Plant response rating (0 to 100), Ryegrass, Italian): 0% | pest or weed control at 125 g/ha (Italian ryegrass; Lolium multiflorum, post-emergence, 125 g ai/ha, postemergence, visual rating, scale 0 to 100 (0 no effect, 100 complete control), read-out: Plant response rating, Ryegrass, Italian): 40% | pest or weed control at 62 g/ha (Italian ryegrass; Lolium multiflorum, post-emergence, Postemergence, 62 g ai/ha, scale 0 to 100 (0 no effect, 100 complete control), read-out: Plant response rating, Ryegrass, Italian): 5% | pest or weed control at 125 g/ha (pigweed; Amaranthus retroflexus, pre-emergence, 125 g ai/ha, 0 to 100 scale where 0 is no effect and 100 is complete control, read-out: Plant response rating, Pigweed): 100% | pest or weed control at 31 g/ha (pigweed; Amaranthus retroflexus, pre-emergence, 240 h, 31 g ai/ha, 0 to 100 scale where 0 is no effect and 100 is complete control, visual, approximately 10 days, read-out: Plant response rating, Pigweed): 100% | pest or weed control at 16 g/ha (johnsongrass; Sorghum halepense, pre-emergence, 16 g ai/ha, preemergence, scale 0 to 100 (0 no effect, 100 complete control), read-out: Johnsongrass plant response rating): 30% | pest or weed control at 62 g/ha (johnsongrass; Sorghum halepense, pre-emergence, 62 g ai/ha, preemergence, scale 0 (no effect) to 100 (complete control), read-out: Johnsongrass plant response rating): 100% | pest or weed control at 125 g/ha (johnsongrass; Sorghum halepense, pre-emergence, 125 g ai/ha, preemergence, scale 0 (no effect) to 100 (complete control), read-out: Johnsongrass plant response rating): 100% | pest or weed control at 250 g/ha (Heteranthera limosa; Heteranthera limosa, read-out: Plant response rating, Ducksalad): 100% | plant injury at 31 g/ha (wheat; Triticum aestivum, post-emergence, 240 h, 31 g ai/ha, 0 to 100 scale, 0 no effect, 100 complete control, read-out: Plant response rating, Wheat): 10% | plant injury at 125 g/ha (wheat; Triticum aestivum, post-emergence, 240 h, 125 g ai/ha, 0 to 100 scale where 0 is no effect and 100 is complete control, read-out: Wheat plant response rating): 80% | Plant response rating, Kochia (kochia [1]; [4]): 100 | Plant response rating, Kochia (kochia [1]; 125 g ai/ha): 100 | plant injury at 16 g/ha (corn; Zea mays, post-emergence, 16 g ai/ha, postemergence, 0 is no effect, 100 is complete control, read-out: Plant response rating (0 to 100), Corn): 5% | Corn plant response rating (crop injury, 0 = no effect, 100 = complete kill) at 125 g/ha (corn; Zea mays, post-emergence, 125 g ai/ha, postemergence, visual rating, scale 0 to 100 (0 no effect, 100 complete control)): 20% | Corn plant response rating (crop injury, 0 = no effect, 100 = complete kill) at 62 g/ha (corn; Zea mays, post-emergence, Postemergence, 62 g ai/ha, scale 0 to 100 (0 no effect, 100 complete control)): 5% | Plant response rating, Kochia (kochia [2]; 31 g ai/ha): 100 | Kochia plant response rating (kochia [2]; [3]): 100 | pest or weed control at 16 g/ha (galium; Galium, pre-emergence, 16 g ai/ha, preemergence, scale 0 to 100 (0 no effect, 100 complete control), read-out: Galium plant response rating): 98% | pest or weed control at 62 g/ha (galium; Galium, pre-emergence, 62 g ai/ha, preemergence, scale 0 (no effect) to 100 (complete control), read-out: Galium plant response rating): 100% | pest or weed control at 125 g/ha (galium; Galium, pre-emergence, 125 g ai/ha, preemergence, scale 0 (no effect) to 100 (complete control), read-out: Galium plant response rating): 100% | pest or weed control at 31 g/ha (galium; Galium, pre-emergence, Preemergence, 31 g ai/ha, scale 0 to 100, 0 no effect, 100 complete control, read-out: Plant response rating, Galium): 98% | pest or weed control at 16 g/ha (waterhemp; Amaranthus tuberculatus, pre-emergence, 16 g ai/ha, preemergence, scale 0 to 100 (0 no effect, 100 complete control), read-out: Waterhemp plant response rating): 100% | pest or weed control at 62 g/ha (waterhemp; Amaranthus tuberculatus, pre-emergence, 62 g ai/ha, preemergence, scale 0 (no effect) to 100 (complete control), read-out: Waterhemp plant response rating): 100% | pest or weed control at 125 g/ha (waterhemp; Amaranthus tuberculatus, pre-emergence, 125 g ai/ha, preemergence, scale 0 (no effect) to 100 (complete control), read-out: Waterhemp plant response rating): 100%

FC(F)Oc1cnn(-c2c(Cl)cccc2Oc2ncc(Cl)cn2)c1 [Compound 258]
Wheat plant response rating (wheat, winter; [5]): 0 | Wheat plant response rating (wheat, winter; [6]): 25 | Plant response rating, Wheat (wheat, winter; [7]): 5 | Plant response rating, Foxtail, Giant (giant foxtail; [8]): 20 | Plant response rating, Foxtail, Giant (giant foxtail; [9]): 70 | Plant response rating, Blackgrass (blackgrass; 31 g ai/ha): 20 | Plant response rating, Blackgrass (blackgrass; 125 g ai/ha): 50 | Plant response rating (0 to 100), Ryegrass, Italian (Italian ryegrass; [10]): 0 | Ryegrass, Italian plant response rating (Italian ryegrass; [11]): 0 | Plant response rating, Ryegrass, Italian (Italian ryegrass; [12]): 30 | Plant response rating, Ryegrass, Italian (Italian ryegrass; [13]): 0 | Plant response rating, Pigweed (pigweed; 31 g ai/ha, 0 to 100 scale where 0 is no effect and 100 is complete control, visual, approximately 10 days): 100 | Pigweed plant response rating (0 to 100 scale) (pigweed; 125 g ai/ha): 100 | Johnsongrass plant response rating (johnsongrass; [5]): 5 | Johnsongrass plant response rating (johnsongrass; [6]): 90 | Plant response rating, Johnsongrass (johnsongrass; [7]): 75 | Plant response rating, Ducksalad (Heteranthera limosa): 100 | Plant response rating, Wheat (wheat; [8]): 0 | Plant response rating, Wheat (wheat; [9]): 50 | Plant response rating, Kochia (kochia [1]; [4]): 90 | Kochia plant response rating (0 to 100 scale) (kochia [1]; 125 g ai/ha): 90 | Plant response rating (0 to 100), Corn (corn; [10]): 5 | Corn plant response rating (corn; [11]): 5 | Plant response rating, Corn (corn; [12]): 20 | Plant response rating, Corn (corn; [13]): 10 | Plant response rating, Kochia (kochia [2]; 31 g ai/ha): 90 | Plant response rating, Kochia (kochia [2]; 125 g ai/ha): 100 | Galium plant response rating (galium; [5]): 80 | Galium plant response rating (galium; [6]): 100 | Plant response rating, Galium (galium; [7]): 100 | Waterhemp plant response rating (waterhemp; [5]): 100 | Waterhemp plant response rating (waterhemp; [6]): 100 | Plant response rating, Waterhemp (waterhemp; [7]): 98
